Data on 14 compounds can be found in patent US11591366B2, “Macrocyclic compounds and methods of preventing or treating pain” (SOCPRA SCIENCES SANTÉ ET HUMAINES S.E.C., priority 2017, dated 2023).

Read-outs that look alike come from different tables or passages of the source. Numbered stars: 1 amine (or outer) side, 2 acyl side, 3 side chain; on linkers, the order of the positions; unused ones are H or OH. Square brackets hold non-standard residues; d marks the D form. Peptide text beside a SMILES is read from it. X3 = NCCCC[C@H](N)CN([C@@H](CCCCN)C(=O)[*:2])[*:1]; Tle = CC(C)(C)[C@H](N)C(=O)O

In general, EC50 refers to the concentration at which the effect is half-maximal. The half-life is the time needed for the level to fall by half in the phase considered. The low end stands for rapid decline, the high end for slow decline. In general, IC50 refers to the concentration that gives 50% inhibition.

The target of series [1] is T1, hNTS1 (β-arrestin 2 recruitment) (Homo sapiens, UniProt P30989).
T1 construct: expressed in transfected cells; host or cells: CHO-K1, transient transfection with PEI
T1 sequence (P30989 whole entry): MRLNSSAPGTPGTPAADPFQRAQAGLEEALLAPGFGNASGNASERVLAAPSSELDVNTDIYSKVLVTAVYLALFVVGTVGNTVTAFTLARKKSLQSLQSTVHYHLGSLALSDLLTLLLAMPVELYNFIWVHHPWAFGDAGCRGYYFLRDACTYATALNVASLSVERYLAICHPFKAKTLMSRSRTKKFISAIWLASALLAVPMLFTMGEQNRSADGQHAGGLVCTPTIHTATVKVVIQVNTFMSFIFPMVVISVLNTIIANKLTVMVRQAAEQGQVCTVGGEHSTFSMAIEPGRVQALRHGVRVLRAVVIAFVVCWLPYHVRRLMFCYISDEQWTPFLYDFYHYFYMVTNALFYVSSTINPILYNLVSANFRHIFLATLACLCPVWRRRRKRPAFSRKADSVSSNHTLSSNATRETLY
T1 sequence (P32121 whole entry partner): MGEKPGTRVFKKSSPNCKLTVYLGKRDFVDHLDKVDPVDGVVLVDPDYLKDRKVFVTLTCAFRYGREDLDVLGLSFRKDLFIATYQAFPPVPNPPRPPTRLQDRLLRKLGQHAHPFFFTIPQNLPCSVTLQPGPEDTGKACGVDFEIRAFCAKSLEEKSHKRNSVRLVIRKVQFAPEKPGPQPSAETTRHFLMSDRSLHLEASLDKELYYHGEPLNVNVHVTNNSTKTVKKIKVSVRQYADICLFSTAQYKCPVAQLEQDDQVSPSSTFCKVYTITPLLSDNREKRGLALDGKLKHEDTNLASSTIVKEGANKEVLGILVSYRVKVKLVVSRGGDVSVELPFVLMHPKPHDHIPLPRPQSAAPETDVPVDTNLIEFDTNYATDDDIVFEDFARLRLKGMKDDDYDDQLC
Put plainly: BRET biosensor assay, β-arrestin 2 recruitment. The class given is cell-based. In general terms: In BRET a luciferase serves as donor, and the signal depends on an acceptor being close.
Description: CHO-K1 cells were cultured in DMEM-F12 supplemented with 10% FBS, 100 U/mL penicillin, 100 μg/mL streptomycin, and 20 mM HEPES at 37° C. in a humidified chamber at 5% CO2. Cells were seeded into T75 flasks at a density of 20 000 cells/cm^2; 24 h later, cells were transfected with plasmids coding for hNTS1-Green fluorescent protein 10(GFP10)/Rluc (Renilla Luciferase)II-β-arrestin 1 or hNTS1-GFP10/RlucII-β-arrestin2, or with hNTS1/Gαq-RlucII/Gβ1/IGFP10-Gγ1 or hNTS1/Gα13-RlucII/Gβ1/GFP10-Gγ1 using polyethylenimine (PEI). Cells were transferred into 96-well plates at a concentration of 50 000 cells/well 24 h after transfection and incubated at 37° C. overnight. They were then washed with PBS and 90 μL HBSS was added in each well. […] After stimulation, coelenterazine 400A was added in each well to a final concentration of 5 μM and the plate was read using filter selected for BRET2 measurement (BRET2 High efficiency filter set, λemRlucII: 410±80 nm, λemGFP10: 515±40 nm) on a Mithras 2 plate reader (Berthold Technologies, Tennessee, USA). BRET2 ratio was determined as GFP10em/RlucIIem. […] EC50 (Effective Concentration 50) values were determined using the dose response-stimulation log(agonist) vs response (three parameters) and represent the mean±SEM of at least three separate experiments, each performed in triplicate.
NTS1 is capable of activating several signaling pathways, thus the activation of Gαq, Gα13, β-arrestin 1 and β-arrestin 2 pathways was monitored. The ability of compounds of the invention to activate the NTS1 receptor was assessed using Bioluminescence Resonance Energy Transfer (BRET)-based biosensors, reporting the dissociation of G proteins (Table III, column EC50 Gq) and the recruitment of β-arrestins to the receptor (Table III, column EC50 βarr).

A short description of series [2]: Plasma stability assay. It is filed as in vitro ADME. The note with it: rat plasma at 37° C. How it is done:
Rat plasma was obtained by centrifugation of rat blood (13000 rpm, 5 min, 4° C.). […] Proteolytic degradation was quenched by adding 70 μL of acetonitrile/ethanol (1:1), 0.5% nicotinamide solution and vortexing. […] Data were analyzed using GraphPad Prism 7's one phase decay equation.

Series [3] has as its system rats. Put plainly: Blood pressure (hypotension). The class given is in vivo, rat. The conditions noted are these: 0.01 mg/kg; for Arterial blood pressure response / Blood pressure drop, first phase / Blood pressure in phase 3: rat, i.v. The method, then: Mean, systolic and diastolic arterial blood pressure and a heart rate were measured through a catheter (PE 50 filled with heparinized saline) inserted in the right carotid artery and connected to a Micro-Med™ transducer (model TDX-300, USA) linked to a blood pressure Micro-Med™ analyzer (model BPA-100c). Another catheter (PE 10 filled with heparinized saline) was inserted in the left jugular vein for injection of test compounds at 0.01 mg/kg (volume 1 mL/kg, 5-10 s) or 0.9% saline. Blood pressure was recorded each second for up to 900 seconds following intravenous injection.

Series [4] addresses T2, rNTS2 receptor (Rattus norvegicus, UniProt Q63384).
T2 construct: expressed in transfected cells; host or cells: DRG-F11 cells, transient transfection, membranes
T2 sequence (Q63384 1-416): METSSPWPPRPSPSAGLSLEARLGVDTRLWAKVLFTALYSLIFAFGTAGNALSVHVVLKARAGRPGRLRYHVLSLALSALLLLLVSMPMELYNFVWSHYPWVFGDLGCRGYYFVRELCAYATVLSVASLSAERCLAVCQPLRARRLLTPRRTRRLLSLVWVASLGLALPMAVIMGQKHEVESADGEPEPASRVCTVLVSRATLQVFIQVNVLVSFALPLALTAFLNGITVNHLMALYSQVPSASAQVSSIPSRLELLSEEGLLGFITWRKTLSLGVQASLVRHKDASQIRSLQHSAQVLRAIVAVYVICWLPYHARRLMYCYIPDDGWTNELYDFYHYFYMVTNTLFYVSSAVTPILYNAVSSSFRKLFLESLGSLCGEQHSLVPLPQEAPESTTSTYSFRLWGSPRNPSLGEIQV
The series is described as follows: Competitive radioligand binding assay on the rNTS2 receptor. The note with it: for inhibition at 1 µM: 1 μM macrocycle dose, read-out: NTS2 % displ at 1 μM (radiolabeled neurotensin displaced); for IC50: 125I-[Tyr3]-NT competition, rNTS2 membranes, read-out: NTS2 IC50. The method, then: DRG-F11 cells were cultured in DMEM supplemented with 10% FBS, 100 U/mL penicillin, 100 μg/mL streptomycin, and 20 mM HEPES.
Membranes were prepared by scraping cells off the culture dish with 50 mM Tris ph 7.5 and centrifuged at 15,000 g for 5 min at 4° C. The pellet was resuspended in 10 mM Tris, 1 mM EDTA pH 7.5 and sonicated for 30 s prior to be centrifugated at 15,000 g for 30 min at 4° C. The pellet was then re-suspended in binding 9 buffer. […] All other steps in binding experiments were unchanged comparing to the one using the NTS1 receptor.

The target in series [5] is T3, hNTS1 (β-arrestin 1 recruitment) (Homo sapiens, UniProt P30989).
T3 construct: expressed in transfected cells; host or cells: CHO-K1, transient transfection with PEI
T3 sequence (P30989 whole entry): as the sequence (P30989 whole entry) above
T3 sequence (P49407 whole entry partner): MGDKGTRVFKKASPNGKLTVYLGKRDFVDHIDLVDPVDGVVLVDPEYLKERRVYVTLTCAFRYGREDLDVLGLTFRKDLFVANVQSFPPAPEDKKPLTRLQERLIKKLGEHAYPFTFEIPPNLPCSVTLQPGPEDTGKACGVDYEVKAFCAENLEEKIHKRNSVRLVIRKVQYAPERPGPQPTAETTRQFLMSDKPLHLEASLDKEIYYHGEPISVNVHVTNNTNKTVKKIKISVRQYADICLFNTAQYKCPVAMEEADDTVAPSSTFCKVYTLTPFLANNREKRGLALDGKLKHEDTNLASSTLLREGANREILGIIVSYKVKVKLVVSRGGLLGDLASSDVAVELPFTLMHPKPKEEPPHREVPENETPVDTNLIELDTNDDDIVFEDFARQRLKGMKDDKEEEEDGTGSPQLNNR
The series is described as follows: BRET biosensor assay, β-arrestin 1 recruitment. The class given is cell-based. The conditions noted are these: CHO-K1 cells transiently transfected with hNTS1 and biosensors, mean ± SEM, read-out: EC50 β-arr1.
Description: CHO-K1 cells were cultured in DMEM-F12 supplemented with 10% FBS, 100 U/mL penicillin, 100 μg/mL streptomycin, and 20 mM HEPES at 37° C. in a humidified chamber at 5% CO2. Cells were seeded into T75 flasks at a density of 20 000 cells/cm^2; 24 h later, cells were transfected with plasmids coding for hNTS1-Green fluorescent protein 10(GFP10)/Rluc (Renilla Luciferase)II-β-arrestin 1 or hNTS1-GFP10/RlucII-β-arrestin2, or with hNTS1/Gαq-RlucII/Gβ1/IGFP10-Gγ1 or hNTS1/Gα13-RlucII/Gβ1/GFP10-Gγ1 using polyethylenimine (PEI). Cells were transferred into 96-well plates at a concentration of 50 000 cells/well 24 h after transfection and incubated at 37° C. overnight. […] After stimulation, coelenterazine 400A was added in each well to a final concentration of 5 μM and the plate was read using filter selected for BRET2 measurement (BRET2 High efficiency filter set, λemRlucII: 410±80 nm, λemGFP10: 515±40 nm) on a Mithras 2 plate reader (Berthold Technologies, Tennessee, USA). BRET2 ratio was determined as GFP10em/RlucIIem. […] EC50 (Effective Concentration 50) values were determined using the dose response-stimulation log(agonist) vs response (three parameters) and represent the mean±SEM of at least three separate experiments, each performed in triplicate.
NTS1 is capable of activating several signaling pathways, thus the activation of Gαq, Gα13, β-arrestin 1 and β-arrestin 2 pathways was monitored. […]

The target of series [6] is hNTS1 receptor (Homo sapiens, UniProt P30989). Put plainly: Competitive radioligand binding assay on the hNTS1 receptor. The conditions noted are these: 125I-[Tyr3]-NT competition, hNTS1 membranes; mean ± SEM; read-out: NTS1 IC50.
Sequence of hNTS1 receptor (P30989 whole entry): as the sequence (P30989 whole entry) above
Description: CHO-K1 (Chinese Hamster Ovary) cells stably expressing hNTS1 (ES-690-C from PerkinElmer, Montréal, Canada) were cultured in DMEM F12 culture medium at 37° C. in a humidified chamber under 5% CO2. Culture media were supplemented with 10% FBS, 100 U/mL penicillin, 100 μg/mL streptomycin, 20 mM HEPES, and 0.4 mg/mL G418 at 37° C.
Cells were frozen when they reached 80% confluency. They were scrapped off the dish with 10 mM Tris buffer, 1 mM EDTA, pH 7.5 and centrifuged at 15,000 g for 5 min at 4° C. The pellet was then re-suspended in binding buffer.
Competitive radioligand binding experiments were performed by incubating 15 μg of cell membranes expressing the hNTS1 receptor with 45 pM of ^125I-[Tyr^3]-NT (2200 Ci/mmol purchased from PerkinElmer, Billerica, Mass.) in binding buffer (50 mM Tris-HCl, pH7.5, 0.2% BSA) in the presence of increasing concentrations of the compounds of the invention ranging from 10^−11 to 10^−4 M for 60 min at 25° C. […] Glass filters were then counted using a γ-counter (2470 Wizard2, PerkinElmer, Missisauga, Ontario, Canada).
IC50 (Inhibitory Concentration 50) values were determined from the competition curves as the unlabeled ligand concentration inhibiting half of the ^125I-[Tyr]-NT-specific binding. […]
The mark [7] stands for this setting: BRET, CHO-K1 cells transiently transfected with hNTS1 and biosensors, mean ± SEM, read-out: EC50 β-arr2.
Setting [8] is: 24 h is the longest time tested.

On to `CCC(C)[C@H](NC(=O)[C@@H]1Cc2ccc(O)c(c2)CC=CCCCCCCC(=O)N[C@@H](CCCCN)C(=O)N2CCC[C@H]2C(=O)N1)C(=O)NC(CC(C)C)C(=O)O` (stereo partly drawn) [Compound 1, c[nonenoic acid KPY(All)]IL], for which the EC50 in series [1] (setting [7]) was 1370 ± 126 nM. Further, the half-life at […] in series [2] (setting [8]) was 12 h.

On to `C=CCNCCCC[C@H](N)C(=O)N[C@@H](CCCCN)C(=O)N1CCC[C@H]1C(=O)N[C@@H](Cc1ccc(O)c(CC=C)c1)C(=O)N[C@H](C(=O)N[C@@H](CC(C)C)C(=O)O)C(C)CC` (stereo partly drawn) [Compound 1-L, nonenoic acid KPY(All)IL], for which, in series [2] (setting [8]), the Plasma half-life is reported as 4 h.

In series [2], `C=CCNCCCC[C@H](N)C(=O)N[C@@H](CCCCN)C(=O)N1CCC[C@H]1C(=O)N[C@@H](Cc1ccc(O)c(CC=C)c1)C(=O)N[C@H](C(=O)N[C@@H](CC(C)C)C(=O)O)C(C)CC` (stereo partly drawn) [Compound 2-L, K(All)KPY(All)IL] had a Plasma half-life of 0.083 h.

In the case of `CCC(C)[C@H](NC(=O)[C@@H]1Cc2ccc(O)c(c2)CC=CCCCCCC[C@](C)(N)C(=O)N[C@@H](CCCCN)C(=O)N2CCC[C@H]2C(=O)N1)C(=O)N[C@@H](CC(C)C)C(=O)O` (stereo partly drawn) [Compound 3, c[OctenylAKPY(All)]IL], the EC50 in series [1] stood at 28 ± 0.1 nM. Further, in series [3], the “Hypotension (I.V.)” value was “Triphasique”; the “Arterial blood pressure response” value is recorded as “triphasic”; the “Blood pressure drop, first phase” value was “about −25 mmHg”; the “Blood pressure in phase 3” value was “slowly returned towards baseline”. Moreover, the Plasma half-life in series [2] (setting [8]) came to 24 h. In series [4], the inhibition at 1 µM was 96% and the IC50 is 25.8 nM.

With `CCC(C)[C@H](NC(=O)[C@@H]1Cc2ccc(O)c(c2)CC=CCNCCCC[C@@H](N)C(=O)N[C@@H](CCCCN)C(=O)N2CCC[C@H]2C(=O)N1)C(=O)N[C@@H](CC(C)C)C(=O)O` (stereo partly drawn) [Compound 4, c[K(All)KPY(All)]IL], the Plasma half-life in series [2] (setting [8]) is recorded as 24 h. For the same compound, in series [4], the inhibition at 1 µM turned out to be 93%.

The compound `CCC(C)[C@H](NC(=O)[C@@H]1Cc2ccc(O)c(c2)CC=CCN(S(=O)(=O)c2ccccc2[N+](=O)[O-])CCCC[C@H](N)C(=O)N[C@@H](CCCCN)C(=O)N2CCC[C@H]2C(=O)N1)C(=O)N[C@@H](CC(C)C)C(=O)O` (stereo partly drawn) [Compound 5, c[K(All)(S(O)2(o-nitrophenyl))KPY(All)]IL] showed a half-life at […] in series [2] (setting [8]) of 1.4 h. In series [4], the inhibition at 1 µM amounted to 96% and the IC50 was 511 nM.

Take `CCC(C)[C@H](NC(=O)[C@@H]1Cc2ccc(O)c(c2)CC=CCNCCCCCC(=O)N[C@@H](CCCCN)C(=O)N2CCC[C@H]2C(=O)N1)C(=O)N[C@@H](CC(C)C)C(=O)O` (stereo partly drawn) [Compound 6, c[aminohex-6-enoic acid(All)KPY(All)]IL]: the EC50 in series [1] (setting [7]) is 96 ± 0.05 nM; in series [5] it was 96 ± 0.07 nM. The compound also displayed a Plasma half-life in series [2] (setting [8]) of 24 h. Also, the inhibition at 1 µM in series [4] came out at 93%. Further, the IC50 in series [6] was 500 ± 22 nM.

On to `CCC(C)[C@H](NC(=O)[C@@H]1Cc2ccc(O)c(c2)CC=CCNCC[C@H](N)C(=O)N[C@@H](CCCCN)C(=O)N2CCC[C@H]2C(=O)N1)C(=O)N[C@@H](CC(C)C)C(=O)O` (stereo partly drawn) [Compound 8, c[Dab(All)KPY(All)]IL], for which the half-life at […] in series [2] (setting [8]) is 2.5 h. For the same compound, in series [4], the inhibition at 1 µM worked out at 64%.

As to `CCC(C)[C@H](NC(=O)[C@@H]1Cc2ccc(O)c(c2)CC=CCCNCCCC[C@H](N)C(=O)N[C@@H](CCCCN)C(=O)N2CCC[C@H]2C(=O)N1)C(=O)N[C@@H](CC(C)C)C(=O)O` (stereo partly drawn) [Compound 9, c[K(butenyl)KPY(All)]IL], in series [2], the half-life at […] came to 0.25 h. The inhibition at 1 µM in series [4] is 104%.

In the case of `CCC(C)[C@H](NC(=O)[C@@H]1Cc2ccc(O)c(c2)CC=CCCCNCCCC[C@H](N)C(=O)N[C@@H](CCCCN)C(=O)N2CCC[C@H]2C(=O)N1)C(=O)N[C@@H](CC(C)C)C(=O)O` (stereo partly drawn) [Compound 10, c[K(pentenyl)KPY(All)]IL], in series [2], the half-life at […] is 0.3 h. Besides, the inhibition at 1 µM in series [4] is 105%.

With `CCC(C)[C@H](NC(=O)[C@@H]1Cc2ccc(O)c(c2)CC=CCCCCCCC(=O)N[C@@H](CCCNC(=N)N)C(=O)N2CCC[C@H]2C(=O)N1)C(=O)N[C@@H](CC(C)C)C(=O)O` (stereo partly drawn) [Compound 11, c[nonenoic acid-RPY(All)]IL], the inhibition at 1 µM in series [4] was 78%.

Turning to `CCC(C)[C@H](NC(=O)[C@H]1Cc2ccc(O)c(c2)CC=CCCCCCC[C@](C)(N)C(=O)N[C@@H](CCCCN)C(=O)N2CCC[C@H]2C(=O)N1)C(=O)N[C@@H](CC(C)C)C(=O)O` (stereo partly drawn) [Compound 12, c[OctenylAKPY(All)]IL], the results for the IC50 in series [4] and in series [6] were 1100 nM and > 10000 nM, respectively.

In the case of `CCC(C)[C@H](NC(=O)[C@H](Cc1ccc(O)cc1)NC(=O)[C@@H]1CCCN1C(=O)[C@H](CCCNC(=N)N)NC(=O)[C@@H](N)CCCNC(=N)N)C(=O)N[C@@H](CC(C)C)C(=O)O` (stereo partly drawn) [NT 8-13, RRPYIL, reference compound], the half-life at […] in series [2] came out at 0.05 h. The inhibition at 1 µM in series [4] is 100%.

Regarding `CCOC(=O)[C@H](CC(C)C)NC(=O)[C@@H](NC(=O)[C@H](Cc1c[nH]c2ccccc12)NC(=O)[C@@H]1CCCN1C(=O)[C@H](CCCCN)NC[C@@H](N)CCCCN)C(C)(C)C` [PD149163, H-Lys-[ψCH2NH]-Lys-Pro-Trp-tertLeu-Leu-OEt, reference compound] (H-[X3]PW[Tle]L-OEt), in series [3], the “Arterial blood pressure response” value was “triphasic”; the “Blood pressure drop, first phase” value is “about −25 mmHg”; the “Blood pressure in phase 3” value is “more sustained”.
